Holding throughout (type): biochemical
One assay addresses KAT8 Full length enzyme (Homo sapiens (Human), UniProt Q9H7Z6). The assay can be described thus: KAT8 assay (SAMDI-MS acetylation of H3 1-21 peptide). As to conditions: Morrison equation fit; replicate number in parentheses; read-out: KAT8 Ki (nM) (replicate number).
Another assay has as its target KAT6A Full length enzyme (Homo sapiens (Human), UniProt Q92794). In words: KAT6A assay (SAMDI-MS acetylation of H3 1-21 peptide). As to conditions: Morrison equation fit; replicate number in parentheses; read-out: KAT6A Ki (nM) (replicate number).
For assay [1], the target named is KAT7+JADE1+EAF6+ING5 4 protein complex (Homo sapiens (Human), UniProt O95251). In words: KAT7 JADE1 assay (SAMDI-MS acetylation of H3 1-21 peptide). As to conditions: Morrison equation fit; replicate number in parentheses; read-out: KAT7 JADE1 Ki (nM) (replicate number).
The target of a further assay is KAT5 Full length enzyme (Homo sapiens (Human), UniProt Q92993). In words: KAT5 assay (SAMDI-MS acetylation of H4 1-21 peptide). As to conditions: Morrison equation fit; replicate number in parentheses; read-out: KAT5 Ki (nM) (replicate number).

Molecules are shown by their SMILES.

KAT8 Full length enzyme, sequence (Q9H7Z6 whole entry): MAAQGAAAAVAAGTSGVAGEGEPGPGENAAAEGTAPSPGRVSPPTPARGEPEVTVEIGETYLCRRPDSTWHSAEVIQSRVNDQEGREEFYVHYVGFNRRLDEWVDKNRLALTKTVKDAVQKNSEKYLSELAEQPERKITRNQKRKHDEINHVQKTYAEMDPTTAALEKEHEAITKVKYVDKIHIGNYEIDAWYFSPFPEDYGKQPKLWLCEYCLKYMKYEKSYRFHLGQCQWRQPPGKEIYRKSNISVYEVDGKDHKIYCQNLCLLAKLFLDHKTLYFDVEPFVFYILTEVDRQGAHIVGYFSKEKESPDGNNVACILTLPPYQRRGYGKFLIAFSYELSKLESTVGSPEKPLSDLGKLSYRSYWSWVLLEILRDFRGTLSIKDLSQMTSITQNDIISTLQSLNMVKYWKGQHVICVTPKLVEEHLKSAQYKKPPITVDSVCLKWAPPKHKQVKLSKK
KAT5 Full length enzyme, sequence (Q92993 whole entry): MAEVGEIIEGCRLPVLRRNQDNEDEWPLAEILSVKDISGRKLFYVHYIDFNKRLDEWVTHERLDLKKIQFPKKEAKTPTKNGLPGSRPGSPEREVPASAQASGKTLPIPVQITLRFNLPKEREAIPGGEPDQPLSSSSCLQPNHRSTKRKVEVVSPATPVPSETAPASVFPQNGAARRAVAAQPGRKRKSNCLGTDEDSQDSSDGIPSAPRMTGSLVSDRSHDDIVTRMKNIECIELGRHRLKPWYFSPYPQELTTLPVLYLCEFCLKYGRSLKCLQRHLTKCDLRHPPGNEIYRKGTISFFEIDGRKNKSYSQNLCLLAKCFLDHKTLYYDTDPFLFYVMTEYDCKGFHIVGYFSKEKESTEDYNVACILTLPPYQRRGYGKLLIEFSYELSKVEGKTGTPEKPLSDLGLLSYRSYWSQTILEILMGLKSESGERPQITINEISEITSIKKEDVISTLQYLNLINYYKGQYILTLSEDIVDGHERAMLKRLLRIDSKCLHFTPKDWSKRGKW
KAT6A Full length enzyme, sequence (Q92794 other isoform, or with tags, fused parts or gaps): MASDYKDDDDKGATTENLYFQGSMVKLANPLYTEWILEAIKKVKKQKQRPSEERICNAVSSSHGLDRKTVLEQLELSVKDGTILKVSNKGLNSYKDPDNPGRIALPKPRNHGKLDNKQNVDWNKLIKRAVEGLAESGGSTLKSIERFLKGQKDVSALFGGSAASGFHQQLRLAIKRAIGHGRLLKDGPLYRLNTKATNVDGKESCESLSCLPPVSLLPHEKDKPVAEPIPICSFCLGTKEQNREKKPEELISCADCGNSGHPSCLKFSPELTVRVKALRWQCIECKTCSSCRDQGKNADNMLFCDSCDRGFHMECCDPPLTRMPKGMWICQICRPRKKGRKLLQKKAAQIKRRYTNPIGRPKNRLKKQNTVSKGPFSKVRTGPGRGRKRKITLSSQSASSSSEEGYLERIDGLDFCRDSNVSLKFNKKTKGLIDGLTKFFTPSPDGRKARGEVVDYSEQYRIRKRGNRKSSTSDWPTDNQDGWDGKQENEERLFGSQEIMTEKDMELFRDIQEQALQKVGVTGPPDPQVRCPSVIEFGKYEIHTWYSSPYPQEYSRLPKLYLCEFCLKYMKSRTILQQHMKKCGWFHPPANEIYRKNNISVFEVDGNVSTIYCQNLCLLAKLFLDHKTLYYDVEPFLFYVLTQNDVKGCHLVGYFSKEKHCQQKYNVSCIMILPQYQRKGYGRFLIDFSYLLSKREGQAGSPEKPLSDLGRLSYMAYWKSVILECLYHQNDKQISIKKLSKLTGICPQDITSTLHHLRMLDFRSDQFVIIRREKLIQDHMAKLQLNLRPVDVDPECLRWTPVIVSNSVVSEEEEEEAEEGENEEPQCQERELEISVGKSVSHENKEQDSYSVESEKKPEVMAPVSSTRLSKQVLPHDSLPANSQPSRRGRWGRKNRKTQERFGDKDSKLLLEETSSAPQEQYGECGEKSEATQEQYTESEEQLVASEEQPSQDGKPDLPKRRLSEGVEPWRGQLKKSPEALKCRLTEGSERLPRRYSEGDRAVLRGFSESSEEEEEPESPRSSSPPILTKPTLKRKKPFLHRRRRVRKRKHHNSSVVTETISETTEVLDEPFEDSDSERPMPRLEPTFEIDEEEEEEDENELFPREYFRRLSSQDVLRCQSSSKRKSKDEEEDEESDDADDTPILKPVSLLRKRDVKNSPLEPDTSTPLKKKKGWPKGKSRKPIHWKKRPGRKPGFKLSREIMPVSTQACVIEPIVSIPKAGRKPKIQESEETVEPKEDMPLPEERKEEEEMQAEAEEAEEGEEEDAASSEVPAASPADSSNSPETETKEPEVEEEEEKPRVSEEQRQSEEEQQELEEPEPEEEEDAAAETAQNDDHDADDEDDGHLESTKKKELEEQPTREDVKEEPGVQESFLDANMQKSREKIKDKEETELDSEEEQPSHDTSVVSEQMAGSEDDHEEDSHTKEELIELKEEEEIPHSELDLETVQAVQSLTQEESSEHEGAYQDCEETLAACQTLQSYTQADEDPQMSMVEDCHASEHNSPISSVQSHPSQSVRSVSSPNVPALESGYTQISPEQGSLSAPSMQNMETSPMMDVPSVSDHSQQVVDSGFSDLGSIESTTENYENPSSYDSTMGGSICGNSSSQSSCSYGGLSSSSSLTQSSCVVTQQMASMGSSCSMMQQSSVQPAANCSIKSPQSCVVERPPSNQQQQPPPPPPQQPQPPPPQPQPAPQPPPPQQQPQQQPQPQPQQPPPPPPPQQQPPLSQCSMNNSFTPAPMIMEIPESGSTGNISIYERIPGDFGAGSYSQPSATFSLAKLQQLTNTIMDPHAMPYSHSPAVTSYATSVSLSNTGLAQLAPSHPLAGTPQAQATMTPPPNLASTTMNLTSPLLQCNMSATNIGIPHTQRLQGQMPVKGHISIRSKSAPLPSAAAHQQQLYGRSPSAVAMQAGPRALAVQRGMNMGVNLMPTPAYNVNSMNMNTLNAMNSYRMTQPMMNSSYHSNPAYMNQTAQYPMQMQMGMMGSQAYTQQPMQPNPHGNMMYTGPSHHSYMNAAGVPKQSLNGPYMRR

As a reminder, the Ki is a dissociation constant, usually derived from enzyme kinetics or from competition with a known ligand. As for `COc1cc(F)ccc1S(=O)(=O)Nc1noc2cc(Nc3cc(C4CC4)n[nH]3)c(F)c(OC)c12` [Example 97, N-{6-[(3-cyclopropyl-1H-pyrazol-5-yl)amino]-5-fluoro-4-methoxy-1,2-benzoxazol-3-yl}-4-fluoro-2-methoxybenzene-1-sulfonamide], the Ki at KAT8 Full length enzyme was more than 13000 nM; at KAT6A Full length enzyme, 9.8 nM; in assay [1] it was 57.7 nM; at KAT5 Full length enzyme, 795 nM.

On to `COc1cccc(OC2CCC2)c1S(=O)(=O)Nc1noc2cc(Nc3cc(C4CC4)n[nH]3)c(F)c(OC)c12` [Example 98, 2-(cyclobutyloxy)-N-{6-[(3-cyclopropyl-1H-pyrazol-5-yl)amino]-5-fluoro-4-methoxy-1,2-benzoxazol-3-yl}-6-methoxybenzene-1-sulfonamide], for which the Ki was more than 13000 nM at KAT8 Full length enzyme, 5.7 nM on KAT6A Full length enzyme, 74.6 nM in assay [1] and 3790 nM at KAT5 Full length enzyme.

Take `COc1cc(F)c(F)cc1S(=O)(=O)Nc1noc2cc(Nc3cc(C4CC4)n[nH]3)c(F)c(OC)c12` [Example 100, N-{6-[(3-cyclopropyl-1H-pyrazol-5-yl)amino]-5-fluoro-4-methoxy-1,2-benzoxazol-3-yl}-4,5-difluoro-2-methoxybenzene-1-sulfonamide]: the Ki at KAT8 Full length enzyme is more than 13000 nM; at KAT6A Full length enzyme, 21.4 nM; in assay [1] it was 86.6 nM; on KAT5 Full length enzyme, 1060 nM.

`CCOc1cc(C(F)F)ccc1S(=O)(=O)Nc1noc2cc(Nc3cc(C4CC4)n[nH]3)c(F)c(OC)c12` [Example 101, N-{6-[(3-cyclopropyl-1H-pyrazol-5-yl)amino]-5-fluoro-4-methoxy-1,2-benzoxazol-3-yl}-4-(difluoromethyl)-2-ethoxybenzene-1-sulfonamide]: the inhibition constant (Ki) on KAT8 Full length enzyme was found to be 10300 nM; at KAT6A Full length enzyme, 5.3 nM; in assay [1] it was 50.7 nM; on KAT5 Full length enzyme it was 1230 nM.

On to `COc1cc2c(NS(=O)(=O)c3c(OC)cccc3OC)noc2cc1Nc1ncccn1` [Example 102, 2,6-dimethoxy-N-{5-methoxy-6-[(pyrimidin-2-yl)amino]-1,2-benzoxazol-3-yl}benzene-1-sulfonamide], for which the Ki is more than 19500 nM on KAT8 Full length enzyme, 1.9 nM on KAT6A Full length enzyme, 1440 nM in assay [1] and 5970 nM at KAT5 Full length enzyme.

With `COc1cc2c(NS(=O)(=O)c3c(OC)cccc3OC)noc2cc1Nc1cc(C2CC2)n(C)n1` [Example 103, N-{6-[(5-cyclopropyl-1-methyl-1H-pyrazol-3-yl)amino]-5-methoxy-1,2-benzoxazol-3-yl}-2,6-dimethoxybenzene-1-sulfonamide], the Ki was 6010 nM at KAT8 Full length enzyme, 2.8 nM at KAT6A Full length enzyme, 47.4 nM in assay [1] and 254 nM on KAT5 Full length enzyme.

In the case of `COc1cc2c(NS(=O)(=O)c3c(OC)cccc3OC)noc2cc1Nc1cc(OC)n(C)n1` [Example 104, 2,6-dimethoxy-N-{5-methoxy-6-[(5-methoxy-1-methyl-1H-pyrazol-3-yl)amino]-1,2-benzoxazol-3-yl}benzene-1-sulfonamide], the Ki on KAT8 Full length enzyme is more than 10900 nM; on KAT6A Full length enzyme, 5.6 nM; in assay [1], 139 nM; at KAT5 Full length enzyme, 1040 nM.

Turning to `COc1cc2c(NS(=O)(=O)c3c(OC)cccc3OC)noc2cc1Nc1nccc(C)n1` [Example 105, 2,6-dimethoxy-N-{5-methoxy-6-[(4-methylpyrimidin-2-yl)amino]-1,2-benzoxazol-3-yl}benzene-1-sulfonamide], the Ki on KAT8 Full length enzyme is more than 12700 nM; at KAT6A Full length enzyme it was 9.7 nM; in assay [1], 414 nM; on KAT5 Full length enzyme, 4120 nM.

As to `CCc1ccnc(Nc2cc3onc(NS(=O)(=O)c4c(OC)cccc4OC)c3cc2OC)n1` [Example 106, N-{6-[(4-ethylpyrimidin-2-yl)amino]-5-methoxy-1,2-benzoxazol-3-yl}-2,6-dimethoxybenzene-1-sulfonamide], the Ki on KAT8 Full length enzyme stood at 6430 nM; on KAT6A Full length enzyme, 11.7 nM; in assay [1], 410 nM; on KAT5 Full length enzyme, 1990 nM.
